As usually defined, the IC50 is the concentration that gives 50% inhibition.

21 compounds from patent publication US11814375B2, “Heterocyclic compounds” (Hoffmann-La Roche Inc., priority 2019, dated 2023) can be followed below.

The target in the experiment is T1, MAGL (Homo sapiens, UniProt Q99685).
T1 sequence (Q99685 1-303): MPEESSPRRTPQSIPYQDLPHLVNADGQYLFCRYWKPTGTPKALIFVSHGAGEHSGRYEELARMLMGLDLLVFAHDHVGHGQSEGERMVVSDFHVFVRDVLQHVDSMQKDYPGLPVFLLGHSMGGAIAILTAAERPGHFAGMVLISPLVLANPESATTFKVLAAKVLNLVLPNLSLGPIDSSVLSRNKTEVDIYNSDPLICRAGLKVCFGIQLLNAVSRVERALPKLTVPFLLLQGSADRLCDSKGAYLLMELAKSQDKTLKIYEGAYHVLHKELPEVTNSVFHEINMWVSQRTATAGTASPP
Briefly: 2-AG assay: MAGL inhibitory activity by hydrolysis of 2-arachidonoylglycerol to arachidonic acid, followed by mass spectrometry. Format: biochemical. The note with it: 8 μM 2-arachidonoylglycerol, 15 min preincubation and 30 min reaction at RT, arachidonic acid/d8-arachidonic acid ratio by MS. As for the experimental part:
Compounds of formula (I) were profiled for MAGL inhibitory activity by determining the enzymatic activity by following the hydrolysis of the natural substrate 2-arachidonoylglycerol (2-AG) resulting in arachidonic acid, which can be followed by mass spectrometry. This assay is hereinafter abbreviated “2-AG assay”.
The 2-AG assay was carried out in 384 well assay plates (PP, Greiner Cat #784201) in a total volume of 20 μL. Compound dilutions were made in 100% DMSO (VWR Chemicals 23500.297) in a polypropylene plate in 3-fold dilution steps to give a final concentration range in the assay from 12.5 μM to […]. 0.25 μL compound dilutions (100% DMSO) were added to 9 μL MAGL in assay buffer (50 mM TRIS (GIBCO, 15567-027), 1 mM EDTA (Fluka, 03690-100 mL), 0.01% (v/v) Tween. After shaking, the plate was incubated for 15 min at RT. To start the reaction, 10 μL 2-arachidonoylglycerol in assay buffer was added. The final concentrations in the assay was […] and 8 μM 2-arachidonoylglyerol. After shaking and 30 min incubation at RT, the reaction was quenched by the addition of 40 μL of ACN containing 4 μM of d8-arachidonic acid. The amount of arachidonic acid was traced by an online SPE system (Agilent Rapidfire) coupled to a triple quadrupole mass spectrometer (Agilent 6460). A C18 SPE cartridge (G9205A) was used in an ACN/water liquid setup. The mass spectrometer was operated in negative electrospray mode following the mass transitions 303.1→259.1 for arachidonic acid and 311.1→267.0 for d8-arachidonic acid. The activity of the compounds was calculated based on the ratio of intensities [arachidonic acid/d8-arachidonic acid].
For `O=C1CO[C@H]2CCN(C(=O)N3CC(c4ccc(Oc5cncc(F)c5)cc4)C3)C[C@H]2N1` [Example 8, (+)-(4aR,8aS)-6-[3-[4-[(5-Fluoro-3-pyridyl)oxy]phenyl]azetidine-1-carbonyl]-4,4a,5,7,8,8a-hexahydropyrido[4,3-b][1,4]oxazin-3-one], the IC50 was found to be 4.3 nM.

Consider `Cc1csc(-c2ccc(C3CN(C(=O)N4CC[C@@H]5OCC(=O)N[C@@H]5C4)C3)cc2)n1` [Example 41, (4aR,8aS)-6-[3-[4-(4-Methyl-1,3-thiazol-2-yl)phenyl]azetidine-1-carbonyl]-4,4a,5,7,8,8a-hexahydropyrido[4,3-b][1,4]oxazin-3-one], for which the 50% inhibitory concentration (IC50) worked out at 24.6 nM.

`O=C1CO[C@H]2CCN(C(=O)N3CC(c4ccc(Oc5ccc(F)cc5)cc4)C3)C[C@H]2N1` [Example 16, (+)-(4aR,8aS)-6-[3-[4-(4-Fluorophenoxy)phenyl]azetidine-1-carbonyl]-4,4a,5,7,8,8a-hexahydropyrido[4,3-b][1,4]oxazin-3-one]: the IC50 came to 0.05 nM.

On to `Cn1nccc1-c1ccc(C2CN(C(=O)N3CC[C@@H]4OCC(=O)N[C@@H]4C3)C2)cc1` [Example 46, (4aR,8aS)-6-[3-[4-(2-Methylpyrazol-3-yl)phenyl]azetidine-1-carbonyl]-4,4a,5,7,8,8a-hexahydropyrido[4,3-b][1,4]oxazin-3-one], for which the half-inhibitory concentration (IC50) was found to be 17.5 nM.

Consider `O=C1CO[C@H]2CCN(C(=O)N3CC(c4ccc(Oc5cccnc5)cc4)C3)C[C@H]2N1` [Example 10, (+)-(4aR,8aS)-6-[3-[4-(3-Pyridyloxy)phenyl]azetidine-1-carbonyl]-4,4a,5,7,8,8a-hexahydropyrido[4,3-b][1,4]oxazin-3-one], for which the IC50 was found to be 2.3 nM.

`CC(C)(C)Cn1nncc1-c1ccc(C2CN(C(=O)N3CC[C@@H]4OCC(=O)N[C@@H]4C3)C2)cc1` [Example 36, (4aR, 8aS)-6-[3-[4-[3-(2,2-Dimethylpropyl)triazol-4-yl]phenyl]azetidine-1-carbonyl]-4,4a,5,7,8,8a-hexahydropyrido[4,3-b][1,4]oxazin-3-one]: the 50% inhibitory concentration (IC50) was determined as 0.9 nM.

As to `O=C1CO[C@H]2CCN(C(=O)N3CC(c4ccc(Oc5ccc(OC(F)(F)F)cc5)nc4)C3)C[C@H]2N1` [Example 49, (4aR,8aS)-6-(3-(6-(4-(Trifluoromethoxy)phenoxy)pyridin-3-yl)azetidine-1-carbonyl)hexahydro-2H-pyrido[4,3-b][1,4]oxazin-3(4H)-one], the half-inhibitory concentration (IC50) amounted to 2.4 nM.

On to `Cc1cc(C)n(-c2ccc(C3CN(C(=O)N4CC[C@@H]5OCC(=O)N[C@@H]5C4)C3)cc2)n1` [Example 35, (4aR,8aS)-6-[3-[4-(3,5-Dimethylpyrazol-1-yl)phenyl]azetidine-1-carbonyl]-4,4a,5,7,8,8a-hexahydropyrido[4,3-b][1,4]oxazin-3-one], for which the IC50 is 17.4 nM.

Consider `CC(C)(C)Cn1nccc1-c1ccc(C2CN(C(=O)N3CC[C@@H]4OCC(=O)N[C@@H]4C3)C2)cc1` [Example 32a, (4aR,8aS)-6-[3-[4-[2-(2,2-Dimethylpropyl)pyrazol-3-yl]phenyl]azetidine-1-carbonyl]-4,4a,5,7,8,8a-hexahydropyrido[4,3-b][1,4]oxazin-3-one], for which the IC50 amounted to 0.2 nM.

Take `O=C1CO[C@H]2CCN(C(=O)N3CC(c4ccc(Oc5ccc(F)cc5)nc4)C3)C[C@H]2N1` [Example 48, (4aR,8aS)-6-(3-(6-(4-Fluorophenoxy)pyridin-3-yl)azetidine-1-carbonyl)hexahydro-2H-pyrido[4,3-b][1,4]oxazin-3(4H)-one]: the IC50 was 31.5 nM.

On to `O=C1CO[C@H]2CCN(C(=O)N3CC(c4ccc(Oc5cccc(C(F)(F)F)c5)cc4)C3)C[C@H]2N1` [Example 22, (+)-(4aR,8aS)-6-[3-[4-[3-(Trifluoromethyl)phenoxy]phenyl]azetidine-1-carbonyl]-4,4a,5,7,8,8a-hexahydropyrido[4,3-b][1,4]oxazin-3-one], for which the IC50 was determined as 0.06 nM.

Take `Cc1ccnc(Oc2ccc(C3CN(C(=O)N4CC[C@@H]5OCC(=O)N[C@@H]5C4)C3)cc2)n1` [Example 5, (+)-(4aR,8aS)-6-[3-[4-(4-Methylpyrimidin-2-yl)oxyphenyl]azetidine-1-carbonyl]-4,4a,5,7,8,8a-hexahydropyrido[4,3-b][1,4]oxazin-3-one]: the IC50 was found to be 23.8 nM.

With `O=C1CO[C@H]2CCN(C(=O)N3CC(c4ccc(Oc5ccncc5F)cc4)C3)C[C@H]2N1` [Example 28, (+)-(4aR,8aS)-6-[3-[4-[(3-Fluoro-4-pyridyl)oxy]phenyl]azetidine-1-carbonyl]-4,4a,5,7,8,8a-hexahydropyrido[4,3-b][1,4]oxazin-3-one], the IC50 is 6.3 nM.

In the case of `O=C1CO[C@H]2CCN(C(=O)N3CC(O)(c4ccc(Oc5ccccc5)cc4)C3)C[C@H]2N1` [Example 55, (4aR,8aS)-6-[3-Hydroxy-3-(4-phenoxyphenyl)azetidine-1-carbonyl]-4,4a,5,7,8,8a-hexahydropyrido[4,3-b][1,4]oxazin-3-one], the IC50 is 10.3 nM.

Turning to `O=C1CO[C@H]2CCN(C(=O)N3CCN(c4ccc(Oc5ccccc5)cc4)CC3)C[C@H]2N1` [Example 58, (4aR,8aS)-6-[4-(4-Phenoxyphenyl)piperazine-1-carbonyl]-4,4a,5,7,8,8a-hexahydropyrido[4,3-b][1,4]oxazin-3-one], the IC50 is 1100 nM.

With `O=C1CO[C@H]2CCN(C(=O)N3CCC(c4ccc(Oc5ccccc5)cc4)CC3)C[C@H]2N1` [Example 57, (4aR,8aS)-6-[4-(4-Phenoxyphenyl)piperidine-1-carbonyl]-4,4a,5,7,8,8a-hexahydropyrido[4,3-b][1,4]oxazin-3-one], the half-inhibitory concentration (IC50) worked out at 17.8 nM.

`O=C1CO[C@H]2CCN(C(=O)N3CC(c4ccc(-c5ccnn5CCF)cc4)C3)C[C@H]2N1` [Example 39, (4aR,8aS)-6-[3-[4-[2-(2-Fluoroethyl)pyrazol-3-yl]phenyl]azetidine-1-carbonyl]-4,4a,5,7,8,8a-hexahydropyrido[4,3-b][1,4]oxazin-3-one]: the IC50 came out at 6.7 nM.

Take `O=C1CO[C@H]2CCN(C(=O)N3CC(c4ccc(Oc5ccccc5)cc4)C3)C[C@H]2N1` [Example 1, (4aR,8aS)-6-(3-(4-Phenoxyphenyl)azetidine-1-carbonyl)hexahydro-2H-pyrido[4,3-b][1,4]oxazin-3(4H)-one]: the IC50 was determined as 0.2 nM.

Take `O=C1CO[C@H]2CCN(C(=O)N3CC(c4ccc(Oc5cnccc5Cl)cc4)C3)C[C@H]2N1` [Example 27, (+)-(4aR,8aS)-6-[3-[4-[(4-chloro-3-pyridyl)oxy]phenyl]azetidine-1-carbonyl]-4,4a,5,7,8,8a-hexahydropyrido[4,3-b][1,4]oxazin-3-one]: the half-maximal inhibitory concentration (IC50) came out at 0.3 nM.

Consider `CC(C)(C)Cc1nnc(-c2ccc(C3CN(C(=O)N4CC[C@@H]5OCC(=O)N[C@@H]5C4)C3)cc2)o1` [Example 38, (4aR,8aS)-6-[3-[4-[5-(2,2-Dimethylpropyl)-1,3,4-oxadiazol-2-yl]phenyl]azetidine-1-carbonyl]-4,4a,5,7,8,8a-hexahydropyrido[4,3-b][1,4]oxazin-3-one], for which the IC50 was found to be 8.5 nM.

Consider `Cc1ccncc1Oc1ccc(C2CN(C(=O)N3CC[C@@H]4OCC(=O)N[C@@H]4C3)C2)cc1` [Example 7, (+)-(4aR,8aS)-6-[3-[4-[(4-Methyl-3-pyridyl)oxy]phenyl]azetidine-1-carbonyl]-4,4a,5,7,8,8a-hexahydropyrido[4,3-b][1,4]oxazin-3-one], for which the 50% inhibitory concentration (IC50) is 0.5 nM.
